Measured values reported in US20160242416A1, “FUNGICIDAL ISOXAZOLINE CARBINOLS” (E I DU PONT DE NEMOURS AND COMPANY, priority 2015, published 2016).

Tests used:
[1] = tested on: Puccinia recondita f sp. tritici; experiment: Test F: wheat leaf rust, preventive spray on wheat seedlings; conditions: 100 = 100% disease control; for Test F rating (% disease control): 10 ppm, wheat leaf rust, 0 = no control; for Test F disease control rating: 10 ppm test solution, 0 = no control relative to controls
Stagonospora nodorum = experiment: Test D: wheat glume blotch, preventive spray on wheat seedlings; conditions: 100 = 100% disease control; for Test D rating (% disease control): 10 ppm, wheat glume blotch, 0 = no control; for Test D disease control rating: 10 ppm test solution, 0 = no control relative to controls
[2] = tested on: Erysiphe graminis f sp. tritici; experiment: Test G: wheat powdery mildew, preventive spray on wheat seedlings; conditions: 100 = 100% disease control; for Test G rating (% disease control): 10 ppm, wheat powdery mildew, 0 = no control; for Test G disease control rating: 10 ppm test solution, 0 = no control relative to controls
Description: (§1) General protocol for preparing test solutions for Tests A-G: the test compounds were first dissolved in acetone in an amount equal to 3% of the final volume and then suspended at the desired concentration (in ppm) in acetone and purified water (50/50 mix by volume) containing 250 ppm of the surfactant PEG400 (polyhydric alcohol esters). The resulting test suspensions were then used in Tests A-G. Compounds were sprayed at a concentration of 50 ppm (*) or 10 ppm to the point of run-off on the test plants, the equivalent of a rate of 200 g/ha or 40 g/ha, respectively.
The test solution was sprayed to the point of run-off on wheat seedlings. The following day the seedlings were inoculated with a spore dust of Erysiphe graminis f sp. tritici, (the causal agent of wheat powdery mildew) and incubated in a growth chamber at 20° C. for 8 days, after which time visual disease ratings were made.
(§2) Compounds with an asterisks (*) were applied at a concentration of 50 ppm, otherwise test solutions were applied at 10 ppm.

Zymoseptoria tritici = experiment: Test E: wheat leaf blotch, preventive spray on wheat seedlings; conditions: 100 = 100% disease control; for Test E rating (% disease control): 10 ppm, wheat leaf blotch, 0 = no control; for Test E disease control rating: 10 ppm test solution, 0 = no control relative to controls
Description: as §1
The test solution was sprayed to the point of run-off on wheat seedlings. The following day the seedlings were inoculated with a spore suspension of Zymoseptoria tritici (the causal agent of wheat leaf blotch) and incubated in a saturated atmosphere at 24° C. for 48 h, and then moved to a growth chamber at 20° C. for 17 days, after which time visual disease ratings were made.
as §2

Botrytis cinerea = experiment: Test B: gray mold, preventive spray on tomato seedlings; conditions: 100 = 100% disease control; for Test B rating (% disease control): 10 ppm, gray mold on tomato, 0 = no control; for Test B disease control rating: 10 ppm test solution, 0 = no control relative to controls
Description: as §1
The test solution was sprayed to the point of run-off on tomato seedlings. The following day the seedlings were inoculated with a spore suspension of Botrytis cinerea (the causal agent of gray mold on many crops) and incubated in a saturated atmosphere at 20° C. for 48 h, and moved to a growth chamber at 27° C. for 2 days, after which time visual disease ratings were made.
as §2

Row | SMILES | Test F rating (% disease control) [1] [%] | Test D rating (% disease control) (Stagonospora nodorum) [%] | Test G rating (% disease control) [2] [%] | Test E rating (% disease control) (Zymoseptoria tritici) [%] | Test B rating (% disease control) (Botrytis cinerea) [%] | Test F disease control rating [1] [%] | Test D disease control rating (Stagonospora nodorum) [%] | Test G disease control rating [2] [%] | Test E disease control rating (Zymoseptoria tritici) [%] | Test B disease control rating (Botrytis cinerea) [%]
1 | OC(Cn1cncn1)(C1=NOC(c2ccc(C(F)(F)F)cc2)C1)c1ccc(C(F)(F)F)cc1 (single isomer, unassigned) [Compound 154] | 52 | 0 | 83 | 1 | 0 |  |  |  |  | 
2 | OC(Cn1cncn1)(C1=NOC2c3ccccc3CCC12)c1ccc(Cl)cc1 (centres unmarked) [Compound 223] |  |  |  |  |  | 100 | 0 | 99 | 63 | 0
3 | CC(C)(C)C(O)(Cn1cncn1)C1=NOC(COc2ccc(I)cc2)C1 (single isomer, unassigned) [Compound 185] | 100 | 100 | 99 | 0 | 0 |  |  |  |  | 
4 | CC(C)(C)C(O)(Cn1cncn1)C1=NOC(COC2CCCCC2)C1 (single isomer, unassigned) [Compound 92] | 0 | 10 | 13 | 3 | 0 |  |  |  |  | 
5 | OC(Cn1cncn1)(C1=NOC(Cn2ccc(C(F)(F)F)n2)C1)c1ccc(Cl)cc1 (single isomer, unassigned) [Compound 194] | 100 | 11 | 99 | 0 | 0 |  |  |  |  | 
6 | CC(C)(C)CC(O)(Cn1cncn1)C1=NOC(Cc2ccc(Cl)cc2)C1 (single isomer, unassigned) [Compound 206] | 100 | 86 | 99 | 13 | 9 |  |  |  |  | 
7 | OC(Cn1cncn1)(C1=NOC(Cc2ccc(F)cc2)C1)c1ccc(Cl)cc1 (single isomer, unassigned) [Compound 198] | 100 | 81 | 100 | 0 | 0 |  |  |  |  | 
8 | OC(Cn1cncn1)(C1=NOC(COC2CCCCC2)C1)c1ccc(Cl)cc1 (single isomer, unassigned) [Compound 89] | 0 | 0 | 76 | 0 | 0 |  |  |  |  | 
9 | CC(C)(C)C(O)(Cn1cncn1)C1=NOC(CCc2ccc(C(F)(F)F)cc2)C1 (single isomer, unassigned) [Compound 14] | 100 | 88 | 99 | 4 | 0 |  |  |  |  | 
10 | CC(C)(C)C(O)(Cn1cncn1)C1=NOC(COc2ccc(F)cc2)C1 (single isomer, unassigned) [Compound 79] | 100 | 100 | 99 | 21 | 97 |  |  |  |  | 
11 | OC(Cn1cncn1)(C1=NOC(Cc2ccc(Br)cc2)C1)c1ccc(Cl)cc1 (single isomer, unassigned) [Compound 54] | 100 | 87 | 99 | 0 | 0 |  |  |  |  | 
12 | OC(Cn1cncn1)(C1=NOC(c2ccc(Br)cc2)C1)c1ccc(Cl)cc1 (single isomer, unassigned) [Compound 179] | 100 | 0 | 91 | 0 | 0 |  |  |  |  | 
13 | OC(Cn1cncn1)(C1=NOC(Cn2ccc(C(F)(F)F)n2)C1)c1ccc(Cl)cc1 (single isomer, unassigned) [Compound 195] | 99 | 0 | 100 | 0 | 0 |  |  |  |  | 
14 | OC(Cn1cncn1)(C1=NOC(CSc2ccccc2)C1)c1ccc(Cl)cc1 (single isomer, unassigned) [Compound 51] | 0 | 89 | 81 | 1 | 16 |  |  |  |  | 
15 | OC(Cn1cncn1)(C1=NOC(c2ccc(Cl)cc2)C1)C1CCCCC1 (single isomer, unassigned) [Compound 197] | 100 | 92 | 98 | 0 | 11 |  |  |  |  | 
16 | CC(C)(C)C(O)(Cn1cncn1)C1=NOC(CCc2ccc(C(F)(F)F)cc2)C1 (single isomer, unassigned) [Compound 13] | 100 | 100 | 100 | 98 | 0 |  |  |  |  | 
17 | CC(C)(C)C(O)(Cn1cncn1)C1=NOC(COCc2ccccc2)C1 (single isomer, unassigned) [Compound 59] | 80 | 92 | 89 | 2 | 0 |  |  |  |  | 
18 | CC1(C(O)(Cn2cncn2)C2=NOC(c3ccc(Cl)cc3)C2)CC1 (single isomer, unassigned) [Compound 126] | 100 | 100 | 99 | 89 | 97 |  |  |  |  | 
19 | OC(Cn1cncn1)(C1=NOC(COCc2ccccc2)C1)c1ccc(Cl)cc1 (single isomer, unassigned) [Compound 57] | 97 | 0 | 97 | 0 | 0 |  |  |  |  | 
20 | CCC(C)(C)C(O)(Cn1cncn1)C1=NOC(COc2ccc(Cl)cc2)C1 (single isomer, unassigned) [Compound 193] | 99 | 93 | 97 | 22 | 9 |  |  |  |  | 
21 | CC(C)(C)C(O)(Cn1cncn1)C1=NOC(COc2cccc(Cl)c2)C1 (single isomer, unassigned) [Compound 231] |  |  |  |  |  | 100 | 100 | 99 | 6 | 80
22 | OC(Cn1cncn1)(C1=NOC(c2ccc(Cl)cc2)C1)c1ccc(Br)cc1 (single isomer, unassigned) [Compound 181] | 45 | 0 | 69 | 0 | 0 |  |  |  |  | 
